What was measured:
[1] = system: HCT-116 colon carcinoma cells (p53+); assay: Cell cycle progression (propidium iodide, flow cytometry); assay type: cell-based; details: HCT-116 (p53+)
Description: (§1) In assays for determining cell cycle progression effects, cells were harvested and single cell suspensions were prepared in buffer (e.g. PBS +2% FBS; PBS+0.1% BSA). Cells were washed twice and resuspend at 1-2×10^6 cells/ml. One ml cells was aliquotted in a 15 ml polypropylene, V-bottomed tube and 3 ml cold absolute ethanol was added. Cells were fixed for at least one hour at 4° C. Fixed cells were washed twice in PBS and one ml of propidium iodide staining solution (3.8 mM sodium citrate, 50 ug/ml propidium iodide in PBS) was added to each cell pellet and mixed well. Fifty microliters of an RNase A stock solution ([…] RNase A boiled for 5 minutes and aliquoted and stored frozen at −20° C.) was added and the resulting mixture was incubated for 3 hours at 4° C. Samples were stored at 4° C. until analyzed by flow cytometry.

MiaPaCa pancreatic cells = assay: as above; assay type: cell-based
Description: as §1

[2] = system: DAOY medulloblastoma cells (p53−); assay: as above; assay type: cell-based
Description: as §1

rRNA synthesis, HCT-116 = assay: PCR assay of rRNA synthesis from 45S rDNA (5' ETS probe); assay type: cell-based; details: various concentrations; two hour or four hour incubation (FIGS. 4A, 4B)
Description: Assays were conducted to determine the effects of compounds on rRNA synthesis from 45S rDNA. In particular, compound A-1 at various concentrations was incubated with cells and tested for an effect on rRNA synthesis after a two hour or four hour incubation with the compound. Synthesized rRNA was quantified by a polymerase chain reaction (PCR) assay. A primer/probe set was designed using Primer Express software and synthesized by Applied Biosystems. The 5′ ETS Probe utilized had the following sequence (@ its 3′ end): 6FAM-TTG ATC CTG CCA GTA GC-MGBNFQ (SEQ ID NO:227). The primer sequences were as follows:
Mix • 1 ug RNA • 2.5 ul 10× Taq Man buffer • 5.5 ul 25 mM MgCl2 • 5 ul of a mix of dNTP (500 uM each) • 1.2 ul random hexamer primer (2.5 uM stock) • 0.5 ul RNase inhibitor (0.4 units/ul) • 0.6 ul Reverse Transcriptase (1.2 units/ul) • bring to 25 ul total volume with water
Mix • 5 ul Reverse Transcriptase reaction product • 12.5 ul 2×PCR mix • 1 uM forward primer • 1 uM reverse primer • 0.5 uM Taq Man probe • 500 nM Rox • Adjust to 25 ul final volume with water
PCR cycles • 95 degrees C. 1 minute • 40 cycles of • 95 degrees C. 15 seconds • 60 degrees C. 1 minute.
Fluorescence of digested label was detected and quantified. […] The effect of other compounds on rRNA synthesis also were assessed in the assay, and provided in the table hereafter are IC50 values of selected compounds pertaining to rRNA synthesis and cMYC RNA synthesis.

[3] = system: cellular DNA or RNA in A549 cells; assay: Cellular target study, RNase A or DNase I treatment of compound-treated cells; assay type: cell-based; details: 2 uM
Description: To determine the cellular target of rRNA-interacting compounds, a study was conducted to ascertain whether the compounds could select for cellular DNA or RNA. In these studies A549 cells were plated in borosilicate chamber slides. The cells were treated with 2 uM compound A-1 the next day for one hour or two hours, washed with PBS, fixed for 10 min in 4% paraformaldehyde, permeabilized for 5 min in 1:1 ethanol:acetone mix, treated with 2.5 ug/mL of RNase A or 340 Kunitz units/mL of DNase I and observed under a fluorescence microscope (Olympus) in the Ex360 nm/Em548 nm channel at 600× magnification. […] Accordingly, a compound tested in the assay interacted with RNA preferentially over DNA in cells.

nucleolin/6183NT = target: T1, nucleolin/6183NT (Homo sapiens, UniProt P19338); assay: EMSA, interference with nucleolin/nucleic acid ligand interaction; assay type: binding; design: key to Activity of Compound A-1 (relative interference), ligand 6183NT: +: least interference by compound A-1; ++++: greatest interference by compound A-1
T1 construct: without the N-terminal acidic stretches domain
Description: The following assays assessed effects of compounds on interactions between nucleolin and nucleic acid ligands capable of forming quadruplex (QP) and hairpin (HP) secondary structures. Nucleic acid ligands tested were a cMyc QP DNA having nucleotide sequence 5′-[…]-3′ (SEQ ID NO: 176) and a HP pre-rRNA region to which nucleolin binds, having the sequence 5′-[…]-3′ (SEQ ID NO: 177). In the assays, recombinant nucleolin (˜250 nM), which was fused to maltose binding protein and had the sequence under accession number NM_005381 without the N-terminal acidic stretches domain, was incubated with each of the two ^32P-labeled nucleic acid ligands (10 or 250 nM). Nucleolin and the nucleic acid ligand were incubated in the presence or absence of a test compound of Formula A-1, B-1, C-6 or C-7 in an incubation buffer (12.5 mM Tris, pH 7.6, 60 mM KCl, 1 mM MgCl2, 0.1 mM EDTA, 1 mM DTT, 5% glycerol, 0.1 mg/ml BSA) for 30 minutes at room temperature. Structures for A-1 and B-1 are shown above and structures for C-6 and C-7 are shown hereafter: [drawing 17] […]
The assay also was conducted in a filter-binding format. […] Radioactivity was assayed with MicroBeta scintillation counter (Perkin Elmer). Binding curves were constructed and apparent Kd's and Bmax's for the complexes were calculated using the GraphPad Prizm software program (GraphPad Software). […]

cells = assay: Cell cycle progression (propidium iodide, flow cytometry); assay type: cell-based; details: various concentrations, varying amounts of time
Description: as §1

T1 sequence (P19338 284-710 limits assumed): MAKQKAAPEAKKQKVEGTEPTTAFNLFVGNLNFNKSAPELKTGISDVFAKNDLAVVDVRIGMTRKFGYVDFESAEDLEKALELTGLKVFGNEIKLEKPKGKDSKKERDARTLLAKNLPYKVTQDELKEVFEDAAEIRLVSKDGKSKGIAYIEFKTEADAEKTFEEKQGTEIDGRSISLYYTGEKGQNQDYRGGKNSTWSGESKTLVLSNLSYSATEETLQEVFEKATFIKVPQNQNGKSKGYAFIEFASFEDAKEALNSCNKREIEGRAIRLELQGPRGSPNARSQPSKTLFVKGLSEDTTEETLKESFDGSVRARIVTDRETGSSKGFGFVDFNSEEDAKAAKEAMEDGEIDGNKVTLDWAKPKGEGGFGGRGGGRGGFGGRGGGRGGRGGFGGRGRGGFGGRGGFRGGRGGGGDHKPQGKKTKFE

| Activity of Compound A-1 (relative interference), ligand 6183NT (nucleolin/6183NT) | IC50 (nucleolin/6183NT; ligand 6183NT, read-out: IC50, concentration of Compound A-1 required to dissociate half of the complexed nucleic acid ligand and nucleolin protein) | SMILES | cell cycle arrest [1] | cell cycle arrest (MiaPaCa pancreatic cells) | cell cycle arrest [2] | effect on rRNA synthesis (rRNA synthesis, HCT-116) | effect of RNase treatment on nucleolar staining by the drug ([3]; 2.5 ug/mL RNase A) | effect of DNase I treatment on compound localization ([3]; 340 Kunitz units/mL DNase I) | effect on the cell cycle (cells) |
| --- | --- | --- | --- | --- | --- | --- | --- | --- | --- |
|  |  | CC(=O)N1CCN(c2ccc3c(=O)c(C(=O)NCCN4CCCC4)c4n(C)c5ccccc5n4c3n2)CC1 [Compound B-1] | arrested in G1 and G2 phases of the cell cycle | arrested primarily in the S phase with some G2 arrest as well | arrested primarily in the S phase with some G2 arrest as well |  |  |  |  |
| + | 3 µM | CN1CCCC1CCNC(=O)c1cn2c3c(c(N4CCC(c5cnccn5)C4)c(F)cc3c1=O)Oc1cc3ccccc3cc1-2 (stereo not drawn) [Compound A-1] |  |  |  | inhibited rRNA synthesis at two hours and four hours | significantly reduced nucleolar staining | minimal effect | little or no affect on the cell cycle |

From US20070117770A1, “Human ribosomal DNA (rDNA) and ribosomal RNA (rRNA) nucleic acids and uses thereof” (Cylene Pharmaceuticals, Inc., priority 2005, published 2007)
